# Results from patent publication US8551470B2, “Use of substance P for mobilization of Mesenchymal stem cells or proliferation of Mesenchymal stem cells and for wound healing or facilitating wound healing” (Korea Institute of Radiological & Medical Sciences, priority 2004, dated 2013).
# Tests used:
# β-catenin = assay: Immunofluorescence staining of β-catenin localization in MSCs; format: cell-based; conditions: human MSCs, 100 nM
# Description: In order to determine whether Substance-P affects the self-renewal capacity of human MSCs, β-catenin, which is the downstream effecter of the wnt signaling pathway, was examined. MSCs (Cambrex Bio Science) were plated in the density of 1×10^4/well, and incubated with MSCGM (Cambrex Bio Science). After adhesion of the cells, they were treated with Substance-P in each concentration, and incubated for 16 h and 48 h. The MSCs were fixed with 4% of paraformaldehyde and permeabilized with 0.3% of Triton X-100. After blocking nonspecific antigen with 20% normal goat serum which was diluted in phosphate buffer for 1 h, the coverslips were incubated with antibodies against β-catenin (BD Biosciencs; Cat #6010153, 1:100) for 90 min, and then with the FITC-conjugated secondary antibodies for 60 min(Vector). The cells were counterstained with DAPI, and examined by using confocal microscopy (Leica).
# cornea wound = assay: Corneal alkali burn rabbit model with intravenous injection of Substance-P; format: in vivo
# Excerpt: New Zealand white rabbits weighing 2-3 kg were purchased from Samtako BioKorea. All these animal experiments were approved by Ethical Committee, Korea Institute of Radiological and Medical Sciences, and Chung-Ang University, and conducted in accordance with the ARVO Statement for the Use of Animal in Ophthalmic and Vision Research. For the alkali burn, the rabbit eyes were placed in contact with a 6 mm piece of circular Whatman filter paper soaked in 1N NaOH for 30 seconds. At 1, 3, 5, 7, 10 and 14 day after the alkali burn, rabbit eyes and whole blood were isolated.
# Thus, it was examined whether or not Substance-P only can stimulate corneal wound healing. To estimate the effect of Substance-P intravenous injection on acceleration of the wound healing, Substance-P at dosage 6.5 ug/kg was intravenously injected firstly immediately after the injury, and then secondly on 2nd day after the wound. At day 7 after the intravenous injection, cornea recovery was estimated by naked eyes with taking digital picture. […] The intravenous injection of Substance-P strongly expedited the cornea healing as shown by clearance of corneal opaqueness and disappearance of hemorrhagic area, compared with the non-injected control rabbit.
# To observe the wound healing degree in the histological level, rabbit eyes were isolated and fixed, and then, H&E staining and immunostaining for CD29 were carried out.
# human MSCs [1] = assay: MSC migration and collagen degradation on 3-D collagen gel; format: cell-based; conditions: human MSCs on 3-D collagen gel, Substance-P in bottom dishes (0-100 nM), 72 h
# Excerpt: In order to determine the mechanism of Substance-P in the mobilization of MSCs, which are strongly attached onto the endosteal surface of bone marrow, Substance-P was first examined to determine whether it stimulates migration of human MSCs cultured on top of the 3-D collagen gel. The type I collagen gel matrix was made within a 12 mm millicell membrane (milipore: 12-μm pore size) according to the manufacturer's specifications (Nitta gelatin, Japan) and coated overnight with type IV collagen (Nitta). The MSCs were plated on top of the collagen gel, and the outer chamber was filled with Substance-P-containing MSCGM (Cambrex Bio Science). Clearance of the collagen gel was monitored by using the phase contrast microscopy (Olympus). At 72 h, the millicell insert and outer dishes were fixed and stained with hematoxylin, and then the culture supernatants were stored for gelatin zymography.
# human MSCs [2] = assay: Viable cell count (triphan blue exclusion) of MSCs after Substance-P treatment; format: cell-based; conditions: 3 day
# Excerpt: At 3 day after the treatment of Substance-P, the triphan blue excluded viable cells were counted.
# VEGF and fibronectin = assay: ELISA and Western blot analysis of VEGF and fibronectin in MSC culture supernatants; format: cell-based, human
# Description: ELISA and Western blot analysis of fibronectin and VEGF, which are down stream genes of Tcf/β-catenin, were carried out.
# [3] = system: MMP-1, MMP-2, MMP-9, MT1-MMP, TIMP-1, TIMP-2; assay: Immunoprecipitation of 35S-methionine labeled MMPs and TIMPs from MSCs; format: cell-based; conditions: human MSCs, Substance-P 0-100 nM, 35S-methionine labeling 16 h
# Description: The effect of Substance-P on the biosynthesis of MMPs (matrix metalloproteinases) and their inhibitors was examined by immunoprecipitation of the culture medium and the cell lysates of MSCs which were labeled with ^35S-methionine. The MSCs were treated with Substance-P and labeled with 50 μCi/ml ^35S-methionine (Amersham) for 16 h. The cell lysate was prepared with a lysis buffer (1% of NP40, 10 mM Tris-HCl, pH 7.4, 150 mM NaCl, 1 mM EDTA, 2 mM PMSF). For immunoprecipitation of the secreted MMP-1, MMP-2, MMP-9, TIMP-1 and TIMP-2, the culture supernatants were incubated with their specific antibodies [anti-MMP-1 (chemicon; Cat #MAB3307, 1:100), anti-MMP-2 (Chemicon; Cat #MAB13405, 1:200), anti-MMP-9 (Calbiochem; Cat #444236, 1:100), anti-TIMP-1 (Calbiochem; Cat #IM32L, 1:250) and anti-TIMP-2 (Calbiochem; Cat #IM11L, 1:250)] for 2 h under constant rotation, and the antibodies were collected by protein-G sepharose-4B (Biorad). The pellet was washed three times with an immunoprecipitation buffer ([…], 50 mM Tris-HCl pH 7.4, 0.2% SDS and 0.5% Nadeoxycholate), once with a high salt buffer (10 mM Tris-HCl, pH 7.4, 0.5 M NaCl), and once with a low salt buffer (10 mM Tris-HCl, pH 7.4). After SDS-PAGE, the gel was soaked in 2 M sodium salicylate, dried, and exposed to the X-ray film for 2 weeks. […]
# MMP-9 and MMP-2 = assay: Gelatin zymography of MSC culture supernatants; format: cell-based; conditions: culture medium of human MSCs on 3-D collagen gel, Substance-P 0-100 nM
# Description: The culture supernatants were examined for gelatin zymography. The eletrophoresis was performed for the culture supernatant in which sample buffer without mercaptoethanol was added thereto, in 8% SDS-PAGE. The gel was renatured with 2.5% of Triton x-100 in order to remove the SDS, and then was incubated with a developing buffer (50 mM Tris-HCl, pH 7.2 100 mM NaCl, 20 mM CaCl2) at 37° C. overnight, and the gel was stained with Coomassie blue.
# [4] = Substance-P 6.5 ug/kg i.v. twice, vs non-injected
substance,measurement,setting,value
Substance-P,nuclear localization of β-catenin,β-catenin; 16 h after Substance-P treatment,only a small number of MSCs at 100 nM showed nuclear localization of β-catenin
same,nuclear translocation of β-catenin,β-catenin; 48 h after Substance-P treatment,all the MSCs showed nuclear translocation of β-catenin
same,"corneal regeneration (naked eye, digital picture)","cornea wound; Substance-P 6.5 ug/kg i.v. immediately after injury and on 2nd day, day 7, vs non-injected control",much faster
same,CD29 immunostaining of cornea,cornea wound; [4],CD 29+cells of small and spindle shape inside of collagen fibers
same,wound healing degree in histology (H&E staining),cornea wound; [4],"full thickness coverage of epithelium, well organized vasculature, and ordered array of dense collagen bundles"
same,healing rate (histological observation during the entire period),cornea wound; Substance-P i.v. vs control group,speeded up the healing rate faster than the control group
same,degradation of the collagen gel and MSC migration,human MSCs [1],stimulated degradation of the collagen gel and MSC migration in a dose dependent manner
same,number of viable cells compared with the control group,human MSCs [2]; 1 nM Substance-P,1.7 times
same,number of viable cells compared with the control group,human MSCs [2]; 10 nM Substance-P,2.1 times
same,number of viable cells compared with the control group,human MSCs [2]; 100 nM Substance-P,2.2 times
same,fibronectin induction (Western blot),VEGF and fibronectin; culture supernatant of Substance-P treated human MSCs,induced
same,VEGF induction (ELISA),VEGF and fibronectin; culture supernatants of Substance-P treated human MSCs,induced
same,"biosynthesis of MMP-1, MMP-2, MMP-9, and MT1-MMP",[3],stimulated in a dose dependent manner
same,biosynthesis of inhibitors TIMP-1 and TIMP-2,[3],inhibited
same,MMP-9 and MMP-2 activities (gelatin zymography),MMP-9 and MMP-2,strong induction of MMP-9 and MMP-2 activities
